How the values were obtained:
[1] = Formation of 1,5-cz-[M(Lig)] from Lig and M^III ions (metal dependent click-zip) (Charts 4, 5); format: physicochemical; details: MOPS/NaOH buffer pH 7.0, TD728, TD827 in 50% i-PrOH; for conversion to 1,5-cz-[M(Lig)], Y^III: TD714 sum of two diastereoisomers
[2] = Formation of 1,5-cz-[Ln(Lig)] from Lig and Ln^III ions (metal dependent click-zip), MOPS/NaOH buffer pH 7.0, analytical HPLC (Charts 1, 2); details: MOPS/NaOH buffer pH 7.0

## CC(C)(N)C#Cc1cccc(CN2CCN(CC(=O)O)CCN(Cc3cc(-c4ccccc4)cc(CN=[N+]=[N-])n3)CCN(CC(=O)O)CC2)n1 [TD1054]
[1]; 1 week at 80° C.
  conversion to 1,5-cz-[M(Lig)], Sc^III: 61%
  conversion to 1,5-cz-[M(Lig)], Y^III: 80%
[1]; 1 hour at 80° C.
  conversion to 1,5-cz-[M(Lig)], Sc^III: 4%
  conversion to 1,5-cz-[M(Lig)], Y^III: 16%
[2]; after 1 week at 80° C.
  conversion to 1,5-cz-[Ln(Lig)], Ce^III: 4%
  conversion to 1,5-cz-[Ln(Lig)], Dy^III: 70%
  conversion to 1,5-cz-[Ln(Lig)], Er^III: 88%
  conversion to 1,5-cz-[Ln(Lig)], Eu^III: 28%
  conversion to 1,5-cz-[Ln(Lig)], Gd^III: 33%
  conversion to 1,5-cz-[Ln(Lig)], Ho^III: 79%
  conversion to 1,5-cz-[Ln(Lig)], La^III: 4%
  conversion to 1,5-cz-[Ln(Lig)], Lu^III: 98%
  conversion to 1,5-cz-[Ln(Lig)], Nd^III: 11%
  conversion to 1,5-cz-[Ln(Lig)], Pr^III: 10%
  conversion to 1,5-cz-[Ln(Lig)], Sm^III: 22%
  conversion to 1,5-cz-[Ln(Lig)], Tb^III: 55%
  conversion to 1,5-cz-[Ln(Lig)], Tm^III: 94%
  conversion to 1,5-cz-[Ln(Lig)], Yb^III: 97%
[2]; after 1 hour at 80° C.
  conversion to 1,5-cz-[Ln(Lig)], Ce^III: 0%
  conversion to 1,5-cz-[Ln(Lig)], Dy^III: 10%
  conversion to 1,5-cz-[Ln(Lig)], Er^III: 26%
  conversion to 1,5-cz-[Ln(Lig)], Eu^III: 3%
  conversion to 1,5-cz-[Ln(Lig)], Gd^III: 3%
  conversion to 1,5-cz-[Ln(Lig)], Ho^III: 16%
  conversion to 1,5-cz-[Ln(Lig)], La^III: 0%
  conversion to 1,5-cz-[Ln(Lig)], Lu^III: 63%
  conversion to 1,5-cz-[Ln(Lig)], Nd^III: 1%
  conversion to 1,5-cz-[Ln(Lig)], Pr^III: 0%
  conversion to 1,5-cz-[Ln(Lig)], Sm^III: 2%
  conversion to 1,5-cz-[Ln(Lig)], Tb^III: 6%
  conversion to 1,5-cz-[Ln(Lig)], Tm^III: 39%
  conversion to 1,5-cz-[Ln(Lig)], Yb^III: 53%

## C#Cc1cccc(CN2CCN(CC(N)=O)CCN(Cc3cc(-c4ccccc4)cc(CN=[N+]=[N-])n3)CCN(CC(N)=O)CC2)n1 [TD779]
[1]; 1 week at 80° C.
  conversion to 1,5-cz-[M(Lig)], Sc^III: 0%
  conversion to 1,5-cz-[M(Lig)], Y^III: 0%
[1]; 1 hour at 80° C.
  conversion to 1,5-cz-[M(Lig)], Sc^III: 0%
  conversion to 1,5-cz-[M(Lig)], Y^III: 4%
[2]; after 1 week at 80° C.
  conversion to 1,5-cz-[Ln(Lig)], Ce^III: 0%
  conversion to 1,5-cz-[Ln(Lig)], Dy^III: 0%
  conversion to 1,5-cz-[Ln(Lig)], Er^III: 0%
  conversion to 1,5-cz-[Ln(Lig)], Eu^III: 0%
  conversion to 1,5-cz-[Ln(Lig)], Gd^III: 0%
  conversion to 1,5-cz-[Ln(Lig)], Ho^III: 0%
  conversion to 1,5-cz-[Ln(Lig)], La^III: 0%
  conversion to 1,5-cz-[Ln(Lig)], Lu^III: 0%
  conversion to 1,5-cz-[Ln(Lig)], Nd^III: 0%
  conversion to 1,5-cz-[Ln(Lig)], Pr^III: 0%
  conversion to 1,5-cz-[Ln(Lig)], Sm^III: 0%
  conversion to 1,5-cz-[Ln(Lig)], Tb^III: 0%
  conversion to 1,5-cz-[Ln(Lig)], Tm^III: 0%
  conversion to 1,5-cz-[Ln(Lig)], Yb^III: 0%
[2]; after 1 hour at 80° C.
  conversion to 1,5-cz-[Ln(Lig)], Ce^III: 0%
  conversion to 1,5-cz-[Ln(Lig)], Dy^III: 8%
  conversion to 1,5-cz-[Ln(Lig)], Er^III: 12%
  conversion to 1,5-cz-[Ln(Lig)], Eu^III: 2%
  conversion to 1,5-cz-[Ln(Lig)], Gd^III: 3%
  conversion to 1,5-cz-[Ln(Lig)], Ho^III: 10%
  conversion to 1,5-cz-[Ln(Lig)], La^III: 0%
  conversion to 1,5-cz-[Ln(Lig)], Lu^III: 5%
  conversion to 1,5-cz-[Ln(Lig)], Nd^III: 0%
  conversion to 1,5-cz-[Ln(Lig)], Pr^III: 0%
  conversion to 1,5-cz-[Ln(Lig)], Sm^III: 1%
  conversion to 1,5-cz-[Ln(Lig)], Tb^III: 6%
  conversion to 1,5-cz-[Ln(Lig)], Tm^III: 9%
  conversion to 1,5-cz-[Ln(Lig)], Yb^III: 9%

Reference: US20250147039A1, “Compounds for complexation of rare earth elements and/or s-, p-, d- block metals, their coordination compounds, peptide conjugates, method of their preparation and use thereof” (USTAV ORGANICKE CHEMIE A BIOCHEMIE AV CR V.V.I., priority 2021, published 2025)
